The values below come from ChEMBL document CHEMBL5465560, “Selectivity Literature for EUbOPEN Chemogenomic Library” (2024).

The target of test [1] is T1, Serine/threonine-protein kinase BRSK2 (Homo sapiens) (UniProt Q8IWQ3).
T1 sequence (whole entry): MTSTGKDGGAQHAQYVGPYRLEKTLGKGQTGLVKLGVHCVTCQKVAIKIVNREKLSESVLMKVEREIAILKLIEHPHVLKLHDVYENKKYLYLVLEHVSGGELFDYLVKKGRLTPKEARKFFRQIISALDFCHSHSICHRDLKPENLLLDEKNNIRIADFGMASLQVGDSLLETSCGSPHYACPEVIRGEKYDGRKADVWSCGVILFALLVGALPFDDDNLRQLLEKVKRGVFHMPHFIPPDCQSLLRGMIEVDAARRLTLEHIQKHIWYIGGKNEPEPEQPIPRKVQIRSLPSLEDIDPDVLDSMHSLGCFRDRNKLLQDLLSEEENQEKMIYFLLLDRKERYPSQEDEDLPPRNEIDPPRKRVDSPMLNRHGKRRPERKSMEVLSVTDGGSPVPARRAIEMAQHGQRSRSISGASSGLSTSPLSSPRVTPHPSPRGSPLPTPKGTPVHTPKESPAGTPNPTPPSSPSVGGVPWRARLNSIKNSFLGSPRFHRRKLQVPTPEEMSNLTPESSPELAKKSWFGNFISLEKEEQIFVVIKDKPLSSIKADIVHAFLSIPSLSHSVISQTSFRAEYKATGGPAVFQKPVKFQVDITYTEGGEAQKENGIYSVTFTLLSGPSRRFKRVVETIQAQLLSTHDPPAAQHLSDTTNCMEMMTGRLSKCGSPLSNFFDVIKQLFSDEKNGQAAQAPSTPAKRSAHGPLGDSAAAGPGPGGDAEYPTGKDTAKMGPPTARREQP
Put plainly: Selectivity interaction (LanthaScreen Eu Kinase Binding Assay) EUB0001632a BRSK2. The conditions noted are these: at 10 µM. (In TR-FRET formats the signal depends on donor and acceptor labels being close together.)

In test [2] the target is Mitogen-activated protein kinase kinase kinase 9 (Homo sapiens) (UniProt P80192). Put plainly: Selectivity interaction (SelectScreen profiling (Invitrogen)) EUB0000607a MAP3K9. The conditions noted are these: at 2 µM.
Sequence of Mitogen-activated protein kinase kinase kinase 9 (Homo sapiens) (P80192 whole entry, looked up): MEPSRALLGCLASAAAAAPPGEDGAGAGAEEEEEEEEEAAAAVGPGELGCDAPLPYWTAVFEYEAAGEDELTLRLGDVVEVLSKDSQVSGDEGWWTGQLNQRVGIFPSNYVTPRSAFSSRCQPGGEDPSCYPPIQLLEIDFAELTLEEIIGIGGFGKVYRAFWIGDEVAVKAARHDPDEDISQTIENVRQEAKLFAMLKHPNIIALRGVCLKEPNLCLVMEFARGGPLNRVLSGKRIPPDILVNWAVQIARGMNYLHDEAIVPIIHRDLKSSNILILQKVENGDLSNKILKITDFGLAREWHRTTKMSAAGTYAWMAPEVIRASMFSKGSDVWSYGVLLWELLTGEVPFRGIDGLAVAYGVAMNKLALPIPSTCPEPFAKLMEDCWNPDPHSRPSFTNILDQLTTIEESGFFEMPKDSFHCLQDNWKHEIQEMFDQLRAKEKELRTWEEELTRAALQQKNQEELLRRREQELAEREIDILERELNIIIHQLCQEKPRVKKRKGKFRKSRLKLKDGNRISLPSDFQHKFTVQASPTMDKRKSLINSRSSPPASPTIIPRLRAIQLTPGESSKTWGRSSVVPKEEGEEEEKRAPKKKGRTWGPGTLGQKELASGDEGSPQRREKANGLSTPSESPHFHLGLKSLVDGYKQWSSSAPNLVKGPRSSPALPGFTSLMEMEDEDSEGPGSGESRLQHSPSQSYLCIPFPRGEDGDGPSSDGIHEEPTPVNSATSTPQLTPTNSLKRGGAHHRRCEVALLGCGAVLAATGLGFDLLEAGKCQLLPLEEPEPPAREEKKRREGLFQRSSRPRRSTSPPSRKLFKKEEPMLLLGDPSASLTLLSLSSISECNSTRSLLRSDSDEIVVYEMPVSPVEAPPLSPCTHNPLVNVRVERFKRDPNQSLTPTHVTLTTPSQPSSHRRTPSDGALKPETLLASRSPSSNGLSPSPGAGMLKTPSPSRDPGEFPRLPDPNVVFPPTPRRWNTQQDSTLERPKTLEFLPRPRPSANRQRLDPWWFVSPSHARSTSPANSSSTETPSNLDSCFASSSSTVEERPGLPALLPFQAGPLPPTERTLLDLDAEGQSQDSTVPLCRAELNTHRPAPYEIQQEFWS
Test [3] addresses Protein-tyrosine kinase 6 (Homo sapiens, UniProt Q13882). As to the kind of experiment: Selectivity interaction (KinomeScan (DiscoverX)) EUB0000607a PTK6. The following applies: at 10 µM.
For test [4], the target named is T2, Tyrosine-protein kinase ZAP-70 (Homo sapiens) (UniProt P43403).
T2 sequence (whole entry): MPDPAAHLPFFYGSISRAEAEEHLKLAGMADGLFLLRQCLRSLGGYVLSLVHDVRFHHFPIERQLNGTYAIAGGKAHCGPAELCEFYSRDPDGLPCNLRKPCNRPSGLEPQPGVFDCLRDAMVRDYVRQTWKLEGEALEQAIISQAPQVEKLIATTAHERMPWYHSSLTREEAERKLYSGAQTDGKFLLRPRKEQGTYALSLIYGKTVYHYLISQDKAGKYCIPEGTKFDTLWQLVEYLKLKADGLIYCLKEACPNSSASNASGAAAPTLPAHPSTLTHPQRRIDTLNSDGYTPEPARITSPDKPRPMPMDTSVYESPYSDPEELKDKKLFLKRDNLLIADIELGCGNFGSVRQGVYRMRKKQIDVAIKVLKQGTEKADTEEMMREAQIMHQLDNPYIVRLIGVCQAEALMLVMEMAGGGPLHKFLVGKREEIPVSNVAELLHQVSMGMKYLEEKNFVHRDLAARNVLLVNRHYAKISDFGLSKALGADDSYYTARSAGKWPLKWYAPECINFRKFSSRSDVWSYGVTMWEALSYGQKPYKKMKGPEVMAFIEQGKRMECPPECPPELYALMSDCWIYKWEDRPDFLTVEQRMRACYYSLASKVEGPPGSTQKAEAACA
The following applies: at 10 µM.

The target of test [5] is Bone morphogenetic protein receptor type-1A (Homo sapiens, UniProt P36894). As to the kind of experiment: Selectivity interaction (KinomeScan (DiscoverX)) EUB0000666a BMPR1A. The following applies: at 10 µM.
Sequence of Bone morphogenetic protein receptor type-1A (P36894 whole entry): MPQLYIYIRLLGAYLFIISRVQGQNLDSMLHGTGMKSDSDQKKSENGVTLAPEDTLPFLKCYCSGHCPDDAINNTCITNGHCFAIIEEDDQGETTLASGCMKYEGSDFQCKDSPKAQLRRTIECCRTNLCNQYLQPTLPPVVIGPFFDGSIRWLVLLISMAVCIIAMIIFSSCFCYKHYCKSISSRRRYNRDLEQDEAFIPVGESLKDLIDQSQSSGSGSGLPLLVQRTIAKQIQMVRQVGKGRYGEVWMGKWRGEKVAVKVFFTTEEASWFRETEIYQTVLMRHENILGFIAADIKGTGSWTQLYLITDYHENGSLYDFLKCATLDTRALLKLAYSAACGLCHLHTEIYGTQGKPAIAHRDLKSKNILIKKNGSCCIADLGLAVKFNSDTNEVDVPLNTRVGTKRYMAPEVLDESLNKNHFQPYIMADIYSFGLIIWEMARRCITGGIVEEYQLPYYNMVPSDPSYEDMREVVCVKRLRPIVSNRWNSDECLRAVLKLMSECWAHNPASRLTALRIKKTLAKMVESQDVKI
Test [6] deals with Serine/threonine-protein kinase PAK 1 (Homo sapiens) (UniProt Q13153). Put plainly: Selectivity interaction (Kinase panel (DSF assay)) EUB0001558a PAK1. Background: DSF heats the sample and reads unfolding from a dye or from intrinsic fluorescence.
Sequence of Serine/threonine-protein kinase PAK 1 (Homo sapiens) (Q13153 whole entry): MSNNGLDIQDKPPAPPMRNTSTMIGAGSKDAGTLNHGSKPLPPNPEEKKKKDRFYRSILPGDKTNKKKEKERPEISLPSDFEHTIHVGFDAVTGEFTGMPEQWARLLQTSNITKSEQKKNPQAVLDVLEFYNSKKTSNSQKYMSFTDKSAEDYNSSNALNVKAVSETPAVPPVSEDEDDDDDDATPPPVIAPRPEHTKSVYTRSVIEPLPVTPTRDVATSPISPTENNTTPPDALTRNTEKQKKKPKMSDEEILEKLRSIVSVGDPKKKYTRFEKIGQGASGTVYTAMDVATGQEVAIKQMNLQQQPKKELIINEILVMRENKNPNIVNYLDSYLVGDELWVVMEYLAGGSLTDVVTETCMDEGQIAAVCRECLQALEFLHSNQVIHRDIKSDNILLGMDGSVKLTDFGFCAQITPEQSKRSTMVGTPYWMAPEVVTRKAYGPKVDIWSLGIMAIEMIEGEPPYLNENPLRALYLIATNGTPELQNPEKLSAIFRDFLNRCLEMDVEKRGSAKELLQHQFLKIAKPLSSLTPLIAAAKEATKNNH
The target in test [7] is Serine/threonine-protein kinase OSR1 (Homo sapiens) (UniProt O95747). Put plainly: Selectivity interaction (KinomeScan (DiscoverX)) EUB0001619a OXSR1. The conditions noted are these: at 1 µM.
Sequence of Serine/threonine-protein kinase OSR1 (Homo sapiens) (O95747 2-527 limits assumed): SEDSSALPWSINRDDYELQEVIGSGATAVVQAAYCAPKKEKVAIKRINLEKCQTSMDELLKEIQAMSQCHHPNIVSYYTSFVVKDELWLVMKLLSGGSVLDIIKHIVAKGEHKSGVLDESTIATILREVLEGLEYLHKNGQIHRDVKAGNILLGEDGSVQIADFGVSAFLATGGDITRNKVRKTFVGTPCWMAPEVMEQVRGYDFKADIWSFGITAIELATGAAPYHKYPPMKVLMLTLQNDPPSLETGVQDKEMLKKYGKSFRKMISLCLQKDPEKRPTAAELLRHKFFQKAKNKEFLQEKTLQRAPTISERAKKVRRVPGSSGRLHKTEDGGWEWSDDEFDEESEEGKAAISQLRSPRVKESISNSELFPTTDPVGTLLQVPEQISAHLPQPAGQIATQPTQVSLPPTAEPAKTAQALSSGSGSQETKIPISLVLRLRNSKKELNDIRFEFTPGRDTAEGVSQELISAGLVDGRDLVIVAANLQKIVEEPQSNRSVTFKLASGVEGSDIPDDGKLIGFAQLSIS
Test [8] has as its target Sphingosine kinase 1 (Homo sapiens) (UniProt Q9NYA1). The conditions noted are these: at 1 µM.
The target in test [9] is Serine/threonine-protein kinase SIK2 (Homo sapiens) (UniProt Q9H0K1). Put plainly: Selectivity interaction (Kinase panel (Invitrogen)) EUB0000639a SIK2. The following applies: at 200 nM.
Sequence of Serine/threonine-protein kinase SIK2 (Homo sapiens) (Q9H0K1 whole entry, looked up): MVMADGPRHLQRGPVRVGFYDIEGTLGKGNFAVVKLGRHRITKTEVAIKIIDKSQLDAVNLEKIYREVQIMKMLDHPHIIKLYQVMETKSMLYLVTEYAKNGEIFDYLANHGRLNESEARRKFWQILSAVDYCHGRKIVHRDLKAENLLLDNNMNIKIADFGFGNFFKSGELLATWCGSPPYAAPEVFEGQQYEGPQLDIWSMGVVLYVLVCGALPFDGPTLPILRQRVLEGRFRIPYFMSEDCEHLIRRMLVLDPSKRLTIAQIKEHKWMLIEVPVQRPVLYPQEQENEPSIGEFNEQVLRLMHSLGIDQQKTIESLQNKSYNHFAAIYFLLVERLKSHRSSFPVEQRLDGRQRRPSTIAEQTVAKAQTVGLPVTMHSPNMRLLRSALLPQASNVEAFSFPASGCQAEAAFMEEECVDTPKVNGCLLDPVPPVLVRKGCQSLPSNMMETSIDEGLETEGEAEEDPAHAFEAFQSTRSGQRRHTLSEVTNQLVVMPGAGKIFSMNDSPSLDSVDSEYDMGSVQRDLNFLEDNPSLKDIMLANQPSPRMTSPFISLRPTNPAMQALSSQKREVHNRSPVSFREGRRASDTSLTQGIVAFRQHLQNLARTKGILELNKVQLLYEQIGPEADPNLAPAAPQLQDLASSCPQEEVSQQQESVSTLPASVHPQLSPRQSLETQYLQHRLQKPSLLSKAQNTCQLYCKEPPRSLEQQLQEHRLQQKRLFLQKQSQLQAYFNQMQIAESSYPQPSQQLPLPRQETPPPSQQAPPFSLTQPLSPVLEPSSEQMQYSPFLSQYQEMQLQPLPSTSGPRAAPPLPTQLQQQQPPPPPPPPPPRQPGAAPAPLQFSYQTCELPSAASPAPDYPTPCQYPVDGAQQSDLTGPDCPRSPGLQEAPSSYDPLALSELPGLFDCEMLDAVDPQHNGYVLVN
Test [10] addresses T3, Ephrin type-B receptor 3 (Homo sapiens) (UniProt P54753).
T3 sequence (whole entry): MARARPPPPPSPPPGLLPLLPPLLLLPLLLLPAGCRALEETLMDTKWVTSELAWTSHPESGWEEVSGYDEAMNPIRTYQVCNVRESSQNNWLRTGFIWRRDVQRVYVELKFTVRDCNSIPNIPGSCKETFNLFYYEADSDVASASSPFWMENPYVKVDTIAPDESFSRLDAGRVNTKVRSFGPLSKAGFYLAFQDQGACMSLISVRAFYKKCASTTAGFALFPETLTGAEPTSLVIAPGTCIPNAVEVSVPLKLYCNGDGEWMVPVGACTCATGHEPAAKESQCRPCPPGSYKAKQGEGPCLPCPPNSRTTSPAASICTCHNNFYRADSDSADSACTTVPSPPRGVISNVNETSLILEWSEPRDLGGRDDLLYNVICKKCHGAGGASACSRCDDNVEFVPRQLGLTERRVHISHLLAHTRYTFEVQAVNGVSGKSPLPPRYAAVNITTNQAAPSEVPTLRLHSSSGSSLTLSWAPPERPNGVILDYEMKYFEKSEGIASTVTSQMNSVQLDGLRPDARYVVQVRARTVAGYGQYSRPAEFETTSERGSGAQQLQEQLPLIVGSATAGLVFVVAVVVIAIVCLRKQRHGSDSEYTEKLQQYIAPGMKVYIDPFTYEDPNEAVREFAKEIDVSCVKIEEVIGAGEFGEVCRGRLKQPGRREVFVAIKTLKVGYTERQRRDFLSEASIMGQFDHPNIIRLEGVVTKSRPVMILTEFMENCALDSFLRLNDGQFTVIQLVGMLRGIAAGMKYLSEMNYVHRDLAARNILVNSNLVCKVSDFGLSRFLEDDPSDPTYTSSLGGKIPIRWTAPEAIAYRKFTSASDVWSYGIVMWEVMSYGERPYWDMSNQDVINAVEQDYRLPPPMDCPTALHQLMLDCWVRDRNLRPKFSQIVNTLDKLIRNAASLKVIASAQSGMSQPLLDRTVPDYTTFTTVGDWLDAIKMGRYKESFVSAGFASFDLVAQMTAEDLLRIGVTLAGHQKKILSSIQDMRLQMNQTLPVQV
Put plainly: Selectivity interaction (Kinase panel (Invitrogen)) EUB0000639a EPHB3. The conditions noted are these: at 200 nM.

The target of test [11] is Serine/threonine-protein kinase 24 (Homo sapiens) (UniProt Q9Y6E0). As to the kind of experiment: Selectivity interaction (KinomeScan (DiscoverX)) EUB0000045b STK24.
Sequence of Serine/threonine-protein kinase 24 (Homo sapiens) (Q9Y6E0 whole entry, looked up): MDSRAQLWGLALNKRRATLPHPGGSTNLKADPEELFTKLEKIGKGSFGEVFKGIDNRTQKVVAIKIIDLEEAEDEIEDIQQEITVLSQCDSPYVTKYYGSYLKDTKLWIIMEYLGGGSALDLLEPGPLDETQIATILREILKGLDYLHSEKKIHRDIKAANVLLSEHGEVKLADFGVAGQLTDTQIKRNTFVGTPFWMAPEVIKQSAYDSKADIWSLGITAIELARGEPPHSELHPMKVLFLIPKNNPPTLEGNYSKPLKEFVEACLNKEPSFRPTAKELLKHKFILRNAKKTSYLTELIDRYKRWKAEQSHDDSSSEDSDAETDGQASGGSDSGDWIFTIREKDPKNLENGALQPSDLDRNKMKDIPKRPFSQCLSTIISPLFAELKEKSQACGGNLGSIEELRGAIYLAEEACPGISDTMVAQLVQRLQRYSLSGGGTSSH

Sequence of Sphingosine kinase 1 (Homo sapiens) (Q9NYA1 whole entry): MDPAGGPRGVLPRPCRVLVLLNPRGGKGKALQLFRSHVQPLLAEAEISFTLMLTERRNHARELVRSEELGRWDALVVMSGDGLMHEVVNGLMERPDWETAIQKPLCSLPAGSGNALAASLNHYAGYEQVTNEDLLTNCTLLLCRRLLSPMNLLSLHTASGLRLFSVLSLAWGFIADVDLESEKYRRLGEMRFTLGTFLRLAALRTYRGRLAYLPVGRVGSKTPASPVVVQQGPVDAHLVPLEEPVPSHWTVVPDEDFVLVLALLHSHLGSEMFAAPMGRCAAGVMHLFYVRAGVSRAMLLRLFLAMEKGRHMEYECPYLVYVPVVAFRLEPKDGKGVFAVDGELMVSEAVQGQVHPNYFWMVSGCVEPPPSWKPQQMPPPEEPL
Sequence of Protein-tyrosine kinase 6 (Q13882 whole entry, looked up): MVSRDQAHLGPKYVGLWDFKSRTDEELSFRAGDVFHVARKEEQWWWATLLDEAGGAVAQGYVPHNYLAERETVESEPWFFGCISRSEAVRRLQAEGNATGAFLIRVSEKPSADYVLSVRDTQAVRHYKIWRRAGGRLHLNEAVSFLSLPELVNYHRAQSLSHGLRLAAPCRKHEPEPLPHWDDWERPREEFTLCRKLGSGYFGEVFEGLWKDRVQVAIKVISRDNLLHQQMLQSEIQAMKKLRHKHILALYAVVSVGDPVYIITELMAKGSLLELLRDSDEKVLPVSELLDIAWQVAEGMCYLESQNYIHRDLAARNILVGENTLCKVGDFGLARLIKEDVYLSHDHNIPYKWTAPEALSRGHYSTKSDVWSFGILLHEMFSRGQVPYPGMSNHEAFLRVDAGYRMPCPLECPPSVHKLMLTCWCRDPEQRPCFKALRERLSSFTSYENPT

Regarding `Cn1cc(-n2cnc3c(NCc4nc5cc(Cl)c(Cl)cc5[nH]4)nc(N4CCOCC4)nc32)cn1`, in [1], the % of inhibition is -172%.

`CNC(=O)Nc1ccc(-c2nc(N3CC4CCC(C3)O4)c3cnn(C4CCC5(CC4)OCCO5)c3n2)cc1`: the % of inhibition in test [2] was found to be 11%. In test [3], this compound yielded a % of control of 55%.

As to `Cc1cc([C@@H](C)Nc2ccccc2C(=O)O)c2nc(N3CCOCC3)cc(=O)n2c1` [AZD-6482], the % of control in test [4] came to 100%.

`O=C(NOC[C@H](O)CO)c1ccc(F)c(F)c1Nc1ccc(I)cc1F`: the % of control in test [5] worked out at 100%.

For `CC(C)(O)[C@H](F)CN1Cc2cc(NC(=O)c3cnn4cccnc34)c(N3CCOCC3)cc2C1=O`, in [6], the dTM was -0.1 K.

Regarding `N#Cc1cccc(-c2c[nH]c3ncnc(N4CCOCC4)c23)c1`, in test [7], the % of control was 90%.

Take `CN1Cc2nccc(-c3cn(C)nc3-c3ccc(F)cc3)c2C1=O`: the % of inhibition in test [8] is -3%.

Consider `CC[C@@H]1[C@H](F)C(=O)N[C@@H]1COc1nccc2cc(C(N)=O)c(OC)cc12` [ZIMLOVISERTIB], for which the % of inhibition in test [9] turned out to be 2.07%; in test [10], 4.83%.

As for `C=CC(=O)Nc1cc(-n2c(=O)ccc3cnc4ccc(-c5ccc(NS(C)(=O)=O)cc5)cc4c32)ccc1C`, the % of control in [11] (at 1 µM) was 100%; in test [11] (at 10 µM), 93%.
